Source: US7589097B2, “Triazol[4,5-d] pyramidine derivatives and their use as purinergic receptor antagonists” (Vernalis Research Limited, priority 2001, dated 2009)

Tests used:
Parkinsonian patients = details: cited from earlier work
cataleptic responses = details: cited from earlier work
[1] = molecular target: human adenosine A2A receptors (Homo sapiens, UniProt P29274); assay: Binding affinities at hA2A receptors, displacement of [3H]-CGS 21680
Source text: Adenosine Receptor Binding Binding Affinities at hA2A Receptors

Sequence of human adenosine A2A receptors (P29274 whole entry): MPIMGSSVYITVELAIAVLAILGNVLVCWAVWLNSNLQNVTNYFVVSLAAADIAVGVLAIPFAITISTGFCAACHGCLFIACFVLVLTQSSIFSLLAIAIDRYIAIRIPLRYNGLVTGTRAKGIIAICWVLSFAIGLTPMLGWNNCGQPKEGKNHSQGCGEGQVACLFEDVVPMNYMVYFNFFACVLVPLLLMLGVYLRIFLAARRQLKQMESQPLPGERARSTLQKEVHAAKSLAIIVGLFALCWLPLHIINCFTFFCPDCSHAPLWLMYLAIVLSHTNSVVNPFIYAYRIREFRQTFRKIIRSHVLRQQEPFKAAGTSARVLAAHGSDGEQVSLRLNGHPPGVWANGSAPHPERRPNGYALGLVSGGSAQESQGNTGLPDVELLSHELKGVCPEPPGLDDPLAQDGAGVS

Structure (SMILES)	Ki [1] [nM]	melting point	other results
Cn1c(=O)c2[nH]cnc2n(C)c1=O [Theophylline, theophylline]			mean objective disability scores (Parkinsonian patients; 15 Parkinsonian patients, up to 12 weeks, 150 mg/day oral): significant improvements; patients reporting moderate or marked subjective improvement (Parkinsonian patients; of 15 Parkinsonian patients, up to 12 weeks, 150 mg/day oral): 11; serum theophylline levels (Parkinsonian patients; slow release oral preparation 150 mg/day, after one week, Parkinsonian patients): 4.44 mg/L
CCCn1c(=O)c2c(nc(/C=C/c3ccc(OC)c(OC)c3)n2C)n(CCC)c1=O [KF 17837, (E)-8-(3,4-dimethoxystyryl)-1,3-dipropyl-7-methylxanthine]			anticataleptic effects of a subthreshold dose of L-DOPA plus benserazide (cataleptic responses; in vivo): potentiated; catalepsy induced by haloperidol and reserpine (cataleptic responses; in vivo): reduced; cataleptic responses induced by intracerebroventricular CGS 21680 (cataleptic responses; oral administration): significantly ameliorated
Nc1nc(-c2ccco2)c2nnn(Cc3ccc4c(c3)OCO4)c2n1 [Example 209, 7-(2-furyl)-3-(3,4-methylenedioxybenzyl)-3H-[1,2,3]triazolo[4,5-d]pyrimidine-5-amine]	1	> 250 °C (dec.)	
C=Cc1cccc(Cn2nnc3c(-c4ccco4)nc(N)nc32)n1 [Example 202, 7-(2-furyl)-3-(6-vinyl-2-pyridylmethyl)-3H-[1,2,3]triazolo[4,5-d]pyrimidine-5-amine]	1	210.5 to 211.6 °C	
Nc1nc(-c2ccco2)c2nnn(Cc3cccc(NCc4ccccn4)c3)c2n1 [Example 255, 3-(3-(2-pyridylmethylamino)benzyl)-7-(2-furyl)-3H-[1,2,3]triazolo[4,5-d]pyrimidine-5-amine]	4	184.5 to 184.6 °C	
CN(C)Cc1cccc(Cn2nnc3c(-c4ccco4)nc(N)nc32)n1 [Example 233, 3-(6-(N,N-dimethylamino)methyl-2-pyridylmethyl)-7-(2-furyl)-3H-[1,2,3]triazolo[4,5-d]pyrimidine-5-amine]	4	219.7 to 222.3 °C	
Nc1nc(-c2ccco2)c2nnn(Cc3cccc4cccnc34)c2n1 [Example 107, 7-(2-furyl)-3-(8-quinolinylmethyl)-3H-[1,2,3]triazolo[4,5-d]pyrimidine-5-amine]	2	276.4 to 277.4 °C	
Nc1nc(-c2ccco2)c2nnn(Cc3ccc(Cl)cc3N)c2n1 [Example 120, 3-(2-amino-4-chlorobenzyl)-7-(2-furyl)-3H-[1,2,3]triazolo[4,5-d]pyrimidine-5-amine]	1	211.4 to 211.6 °C	
Nc1nc(-c2ccco2)c2nnn(Cc3cccc(F)c3F)c2n1 [Example 57, 3-(2,3-difluorobenzyl)-7-(2-furyl)-3H-[1,2,3]triazolo[4,5-d]pyrimidine-5-amine]	2	188.8 to 188.9 °C	
Cc1cccc(Cn2nnc3c(-c4ccco4)nc(N)nc32)c1[N+](=O)[O-] [Example 92, 7-(2-furyl)-3-(3-methyl-2-nitrobenzyl)-3H-[1,2,3]triazolo[4,5-d]pyrimidine-5-amine]	2	267.9 to 268.5 °C	
